Reference: patent US20060083748A1, “Calixarenes for use as excipient for an active substance” (priority 2002, published 2006)
Like-named read-outs stand apart in the source and are kept apart here.

What was measured:
[1] = Membrane permeation, traditional artificial membrane without hydrophilic pores (Standard); conditions: artificial membrane without hydrophilic pores (transcellular path); 125 or 250 μM, Tris-buffer pH 7.4, 16 hours
Description: (§1) The combination of these two test systems allows the study of the permeability of a plurality of active ingredients independently of the type of transport which they prefer.

[2] = Membrane permeation, PAMPORE system (hydrophilic pores in the lipid layer); conditions: hydrophilic pores in the lipid layer (paracellular path); 125 or 250 μM, Tris-buffer pH 7.4, 16 hours
Description: as §1

herpes simplex = conditions: cited from earlier work
[3] = AIDS, chemotherapy; i.v. administration; cited from earlier work
[4] = cited from earlier work
CMV = conditions: in achievable concentrations; cited from earlier work
[5] = system: Herpes simplex 1, herpes simplex 2, varicella zoster; conditions: cited from earlier work
Epstein-Barr = conditions: cited from earlier work
Varizella zoster = conditions: cited from earlier work

## 5,11,17,23-tetrasulphonic acid calix[4]arenes
[1]
  Membrane permeation (%) Standard: <15%
[2]
  Membrane permeation (%) PAMPORE: 100%

## Nc1nc2c(ncn2COCCO)c(=O)[nH]1 [aciclovir]
Herpes simplex; chron. suppressive therapy
  Effect in recurring mucocutaneous herpes infections: reduces rate of attack
Herpes simplex; mucocutaneous herpes simplex infections
  Effect in mucocutaneous herpes simplex infections: overall moderate benefit
[3]
  Effect in immune suppressed patients: prevents dissemination, faster healing
[4]; anuria (renal insufficiency)
  t/2: 18 h
[4]; normal renal function
  t/2: 3 h
CMV
  Activity against CMV: not active
[5]
  Activity (order of activity against viruses): Herpes simplex 1>herpes simplex 2>varicella zoster
Epstein-Barr
  Activity against Epstein-Barr: only in vitro
Varizella zoster; in vivo
  Effect on post-herpetic neuralgia: no clear effect
Varizella zoster; symptoms, lesions, pain
  Effect on healing in varizella zoster infections: faster healing

## Hexasulphonic acid calix[6]arenes
[1]
  Membrane permeation (%) Standard: 0%
[2]
  Membrane permeation (%) PAMPORE: 100%

## Tetramethyltetramethyl resorcin[4]arenes
[1]
  Membrane permeation (%) Standard: <15%
[2]
  Membrane permeation (%) PAMPORE: 95%
